How the values were obtained:
[1] = target: T1, GLS1 (purified recombinant human GAC) (Homo sapiens, UniProt O94925); experiment: GLS1 enzymatic activity assay (dual-coupled, Amplex UltraRed/resorufin); type: biochemical
T1 sequence (O94925 55-598 isoform O94925-3 limits assumed): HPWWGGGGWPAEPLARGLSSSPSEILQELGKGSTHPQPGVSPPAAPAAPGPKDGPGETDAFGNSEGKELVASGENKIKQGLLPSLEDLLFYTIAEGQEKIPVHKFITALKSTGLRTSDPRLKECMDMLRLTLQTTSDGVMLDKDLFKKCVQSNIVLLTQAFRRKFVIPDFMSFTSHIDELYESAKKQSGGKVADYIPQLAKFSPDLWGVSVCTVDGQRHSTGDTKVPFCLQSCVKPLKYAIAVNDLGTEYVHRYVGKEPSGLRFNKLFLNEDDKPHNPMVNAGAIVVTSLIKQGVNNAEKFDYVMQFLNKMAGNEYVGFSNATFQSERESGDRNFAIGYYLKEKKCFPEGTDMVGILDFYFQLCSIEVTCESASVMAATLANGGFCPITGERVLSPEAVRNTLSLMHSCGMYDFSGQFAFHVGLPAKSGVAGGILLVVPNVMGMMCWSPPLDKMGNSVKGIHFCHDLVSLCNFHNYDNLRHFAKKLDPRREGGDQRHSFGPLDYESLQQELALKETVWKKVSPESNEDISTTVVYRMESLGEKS
Summary of the method: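 GAC activity measured by coupling glutamate to glutamate oxidase and HRP, generating resorufin from Amplex UltraRed. Enzyme (2 nM) preincubated with 50 mM potassium phosphate 10 min at room temperature, then inhibitor 10 min; 1 mM glutamine substrate, 1% DMSO. Fluorescence 530/590 nm, kinetic or 20-min endpoint; IC50 from four-parameter logistic fit.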

[2] = test system: A549 cells; experiment: A549 proliferation (viability) assay, Cell Titer Fluor, 72 hours; type: cell-based; details: Homo sapiens
Summary of the method: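 Fluorescence read-out (Cell Titer Fluor, 30 min at 37 °C after reagent) after 72 h compound exposure of A549 cells; EC50 by four-parameter logistic curve fit. Cells: 1000/well, RPMI 1640 + 10% dialyzed FBS, 0.5% DMSO final.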

IC50 [1] [nM] | EC50 [2] [nM] | SMILES
< 100 | 100 to 500 | O=C(CC1CCC1)Nc1ccn(CCC(F)Cn2cc(C(=O)NCc3ccc(C(F)(F)F)nc3)nn2)c(=O)c1F (centres unmarked) [Example 357, 1-{4-[4-(2-cyclobutylacetamido)-3-fluoro-2-oxo-1,2-dihydropyridin-1-yl]-2-fluorobutyl}-N-{[6-(trifluoromethyl)pyridin-3-yl]methyl}-1H-1,2,3-triazole-4-carboxamide]
< 100 | < 100 | O=C(CC1CCCCC1)Nc1ccn(CCCCc2nnc(C(=O)NCc3ncccc3F)s2)c(=O)c1 [Example 455, 5-{4-[4-(2-cyclohexylacetamido)-2-oxo-1,2-dihydropyridin-1-yl]butyl}-N-[(3-fluoropyridin-2-yl)methyl]-1,3,4-thiadiazole-2-carboxamide]
100 to 500 | 500 to 5000 | Cc1ccc(CNC(=O)c2cn(CC(F)CCn3ccc(NC(=O)OC4CCC4)nc3=O)nn2)cn1 (centres unmarked) [Example 413, cyclobutyl N-{1-[3-fluoro-4-(4-{[(6-methylpyridin-3-yl)methyl]carbamoyl}-1H-1,2,3-triazol-1-yl)butyl]-2-oxo-1,2-dihydropyrimidin-4-yl}carbamate]
100 to 500 | < 100 | O=C(CC1CCC1)Nc1ccn(CCC(F)Cn2cc(C(=O)NCc3ccc(C(F)(F)F)cn3)nn2)c(=O)c1F (centres unmarked) [Example 390, 1-{4-[4-(2-cyclobutylacetamido)-3-fluoro-2-oxo-1,2-dihydropyridin-1-yl]-2-fluorobutyl}-N-{[5-(trifluoromethyl)pyridin-2-yl]methyl}-1H-1,2,3-triazole-4-carboxamide]

More lines, now with the values behind:

SMILES | IC50 [1] [nM] | EC50 [2] [nM]
O=C(CN1CCC(F)(F)CC1)Nc1ccn(CCC(F)Cn2cc(C(=O)NCc3cccc(OC(F)(F)F)c3)nn2)c(=O)c1F (centres unmarked) [Example 290, 1-(4-{4-[2-(4,4-difluoropiperidin-1-yl)acetamido]-3-fluoro-2-oxo-1,2-dihydropyridin-1-yl}-2-fluorobutyl)-N-{[3-(trifluoromethoxy)phenyl]methyl}-1H-1,2,3-triazole-4-carboxamide] | < 100 | < 100
O=C(Cc1ccccc1)Nc1ccn(CCCCCc2nnc(NC(=O)Cc3ccccc3)s2)c(=O)n1 [Example 74, N-(2-oxo-1-{5-[5-(2-phenylacetamido)-1,3,4-thiadiazol-2-yl]pentyl}-1,2-dihydropyrimidin-4-yl)-2-phenylacetamide] | 500 to 5000 | > 5000
Cc1ccc(CNC(=O)c2nnc(CCCCn3ccc(NC(=O)OC4CCC4)c(F)c3=O)s2)cn1 [Example 468, Cyclobutyl(3-fluoro-1-(4-(5-(((6-methylpyridin-3-yl)methyl)carbamoyl)-1,3,4-thiadiazol-2-yl)butyl)-2-oxo-1,2-dihydropyridin-4-yl)carbamate] | 100 to 500 | 100 to 500
O=C(Cc1ccccc1)Nc1ccn(CCCCc2nnc(NC(=O)[C@@H](O)c3ccccc3)s2)c(=O)n1 [Example 17, (S)-2-hydroxy-N-(5-(4-(2-oxo-4-(2-phenylacetamido)pyrimidin-1(2H)-yl)butyl)-1,3,4-thiadiazol-2-yl)-2-phenylacetamide] | < 100 | > 5000
O=C(CN1CCOCC1)Nc1ccn(CCC(F)Cn2cc(C(=O)NCc3cccc(OC(F)(F)F)c3)nn2)c(=O)c1 (centres unmarked) [Example 213, 1-(2-fluoro-4-{4-[2-(morpholin-4-yl)acetamido]-2-oxo-1,2-dihydropyridin-1-yl}butyl)-N-{[3-(trifluoromethoxy)phenyl]methyl}-1H-1,2,3-triazole-4-carboxamide] | 100 to 500 | 500 to 5000
O=C(CC1CCN(CC(F)F)CC1)Nc1ccn(CCC(F)Cn2cc(C(=O)NCc3cccc(OC(F)(F)F)c3)nn2)c(=O)c1 (centres unmarked) [Example 242, 1-[4-(4-{2-[1-(2,2-difluoroethyl)piperidin-4-yl]acetamido}-2-oxo-1,2-dihydropyridin-1-yl)-2-fluorobutyl]-N-{[3-(trifluoromethoxy)phenyl]methyl}-1H-1,2,3-triazole-4-carboxamide] | < 100 | 100 to 500

— patent publication US20160002204A1 (Board of Regents, The University of Texas System, priority 2014, published 2016)
